Patent US8927563B2, “Kinase inhibitor” (Respivert Limited, priority 2013, dated 2015)
Where two headings read alike, the source gives them in different places.

Tests used:
Lck = Lck (Homo sapiens (Human), UniProt P06239); assay: KINOMEscan dissociation constant, Lck; type: binding
Procedure: (§1) Kinase enzyme binding activities of compounds disclosed herein may be determined using a proprietary assay which measures active site-directed competition binding to an immobilized ligand (Fabian, M. A. et al., Nature Biotechnol., 2005, 23:329-336). These assays may be conducted by DiscoverX (formerly Ambit; San Diego, Calif.). The percentage inhibition produced by incubation with a test compound may be calculated relative to the non-inhibited control.

CYP3A4 = CYP3A4 (Homo sapiens (Human), UniProt P08684); assay: CYP3A4 inhibition with and without preincubation; type: in vitro ADME; settings: for inhibition at 15 µM: human, read-out: 15 μM % Inh
Sequence of CYP3A4 (P08684 whole entry): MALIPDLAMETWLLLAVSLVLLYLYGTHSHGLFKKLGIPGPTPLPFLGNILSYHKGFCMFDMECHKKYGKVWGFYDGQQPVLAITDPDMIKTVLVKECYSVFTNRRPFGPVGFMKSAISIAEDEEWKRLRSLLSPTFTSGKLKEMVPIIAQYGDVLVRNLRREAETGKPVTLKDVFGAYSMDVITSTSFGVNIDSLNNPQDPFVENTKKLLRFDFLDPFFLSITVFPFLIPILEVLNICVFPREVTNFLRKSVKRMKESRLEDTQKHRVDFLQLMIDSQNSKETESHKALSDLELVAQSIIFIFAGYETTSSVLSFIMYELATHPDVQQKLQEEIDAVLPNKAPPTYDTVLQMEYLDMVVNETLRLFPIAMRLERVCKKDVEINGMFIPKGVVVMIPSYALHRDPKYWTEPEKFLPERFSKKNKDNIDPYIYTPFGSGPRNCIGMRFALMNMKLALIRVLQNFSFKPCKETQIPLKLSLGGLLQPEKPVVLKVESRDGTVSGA
Procedure: (§2) Assessment of certain in vitro ADME (absorption, distribution, metabolism, and excretion) parameters for Compound I was conducted by BioFocus (Saffron Walden, UK). The results reveal that Compound I is cleared rapidly by human hepatocytes and that it has a reduced liability for time-dependent cytochrome P450 inhibition.

Syk = Syk (Homo sapiens (Human), UniProt P43405); assay: KINOMEscan dissociation constant, Syk; type: binding
Procedure: as §1

p38 MAPKα [1] = target: T1, p38 MAPKα (Homo sapiens (Human), UniProt Q16539); assay: KINOMEscan dissociation constant, p38 MAPKα; type: binding
T1 sequence (Q16539 whole entry, looked up): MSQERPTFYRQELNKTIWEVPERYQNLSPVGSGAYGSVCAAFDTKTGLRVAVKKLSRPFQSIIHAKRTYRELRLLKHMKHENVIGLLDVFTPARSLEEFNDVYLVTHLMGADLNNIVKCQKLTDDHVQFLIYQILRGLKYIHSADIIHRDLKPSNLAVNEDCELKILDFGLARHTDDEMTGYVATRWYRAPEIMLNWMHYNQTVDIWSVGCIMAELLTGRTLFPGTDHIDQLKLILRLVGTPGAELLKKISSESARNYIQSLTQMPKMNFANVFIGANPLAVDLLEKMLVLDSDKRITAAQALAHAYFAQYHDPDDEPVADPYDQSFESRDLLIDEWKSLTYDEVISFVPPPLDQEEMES
Procedure: as §1

[2] = tested on: intestinal mucosa biopsies from ulcerative colitis patients; assay: Human biopsy assay, cytokine release from biopsies of UC patients; type: cell-based; settings: 1 μg/mL, 24 hours; relative to DMSO control 100%
Procedure: Intestinal mucosa biopsies are obtained from the inflamed regions of the colons of IBD patients. The biopsy material is cut into small pieces (2-3 mm) and placed on steel grids in an organ culture chamber at 37° C. in a 5% CO2/95% O2 atmosphere in serum-free media. DMSO control or test compound at the desired concentration are added to the tissue and incubated for 24 hr in the organ culture chamber. The supernatant is harvested for determination of IL-6, IL-8, IL-1β and TNFα levels by R&D ELISA.

B-Raf (V600E) = B-Raf (V600E) (Homo sapiens (Human), UniProt P15056, V600E); assay: KINOMEscan binding of B-Raf (V600E) to standard ligand
Sequence of B-Raf (V600E) (P15056 whole entry V600E): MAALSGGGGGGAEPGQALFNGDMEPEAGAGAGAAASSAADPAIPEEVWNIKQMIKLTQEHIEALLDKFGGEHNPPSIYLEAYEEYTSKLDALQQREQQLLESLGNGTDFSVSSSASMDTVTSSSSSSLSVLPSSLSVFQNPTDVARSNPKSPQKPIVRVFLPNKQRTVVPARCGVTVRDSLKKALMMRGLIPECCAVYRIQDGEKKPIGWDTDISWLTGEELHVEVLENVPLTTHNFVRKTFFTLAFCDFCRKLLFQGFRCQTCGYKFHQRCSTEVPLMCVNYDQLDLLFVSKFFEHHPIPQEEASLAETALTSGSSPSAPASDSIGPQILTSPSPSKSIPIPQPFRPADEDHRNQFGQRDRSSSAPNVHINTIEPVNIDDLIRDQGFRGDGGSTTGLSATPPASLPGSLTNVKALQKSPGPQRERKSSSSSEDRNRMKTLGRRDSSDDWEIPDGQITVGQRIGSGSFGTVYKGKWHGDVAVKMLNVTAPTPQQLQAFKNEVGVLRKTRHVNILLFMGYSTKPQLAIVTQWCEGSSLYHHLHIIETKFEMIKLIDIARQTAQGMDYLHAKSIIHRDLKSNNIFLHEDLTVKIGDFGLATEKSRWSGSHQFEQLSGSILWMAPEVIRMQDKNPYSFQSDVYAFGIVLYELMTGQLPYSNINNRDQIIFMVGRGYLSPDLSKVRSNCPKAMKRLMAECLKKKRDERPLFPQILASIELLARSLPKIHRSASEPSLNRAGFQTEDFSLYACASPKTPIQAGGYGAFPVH
Procedure: as §1

[3] = Pharmacokinetics after oral administration to rats; type: in vivo; settings: oral 5 mg/kg, vehicle B
Procedure: (§3) Studies were conducted by Sai Life Sciences (Hinjewadi, Pune, India) to investigate the plasma pharmacokinetics and total colon tissue distribution of Compound I. In particular, pharmacokinetic studies were carried out in: • male C57BL/6 mice, following a single oral administration; and • male Wistar rats following a single intravenous or oral administration.

GSK3α = GSK3α (Homo sapiens (Human), UniProt P49840); assay: GSK3α enzyme inhibition (Method 2), Z-LYTE FRET; type: biochemical
Sequence of GSK3α (P49840 whole entry): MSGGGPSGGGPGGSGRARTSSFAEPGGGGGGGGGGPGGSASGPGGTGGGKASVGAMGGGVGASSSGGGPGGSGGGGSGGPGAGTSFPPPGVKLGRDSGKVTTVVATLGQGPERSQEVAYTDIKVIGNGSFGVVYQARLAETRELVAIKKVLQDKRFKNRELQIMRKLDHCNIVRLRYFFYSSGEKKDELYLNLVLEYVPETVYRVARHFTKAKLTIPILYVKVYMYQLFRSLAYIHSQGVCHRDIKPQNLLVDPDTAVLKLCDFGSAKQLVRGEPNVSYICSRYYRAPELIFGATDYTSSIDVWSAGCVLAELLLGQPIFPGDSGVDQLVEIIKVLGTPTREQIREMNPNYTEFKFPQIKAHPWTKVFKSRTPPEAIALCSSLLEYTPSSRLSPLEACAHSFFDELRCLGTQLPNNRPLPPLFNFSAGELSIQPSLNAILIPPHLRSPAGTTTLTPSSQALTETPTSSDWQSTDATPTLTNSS
Procedure: (§4) The enzyme inhibitory activities of compounds disclosed herein are determined by FRET using synthetic peptides labelled with both donor and acceptor fluorophores (Z-LYTE, Invitrogen Ltd., Paisley, UK).
The inhibitory activities of the compound of the invention against the GSK 3α enzyme isoform (Invitrogen), are evaluated by determining the level of activation/phosphorylation of the target peptide. The GSK3-α protein (500 ng/mL, 2.5 μL) is mixed with the test compound (2.5 μL at either 4 μg/mL, 0.4 μg/mL, 0.04 μg/mL, or 0.004 μg/mL) for 2 hr at RT. The FRET peptide (8 μM, 2.5 μL), which is a phosphorylation target for GSK3α, and ATP (40 μM, 2.5 μL) are then added to the enzyme/compound mixture and the resulting mixture incubated for 1 hr. Development reagent (protease, 5 μL) is added for 1 hr prior to detection in a fluorescence microplate reader (Varioskan® Flash, ThermoFisher Scientific).
In all cases, the site-specific protease cleaves non-phosphorylated peptide only and eliminates the FRET signal. Phosphorylation levels of each reaction are calculated using the ratio of coumarin emission (donor) over fluorescein emission (acceptor), for which high ratios indicate high phosphorylation and low ratios indicate low phosphorylation levels. […]

CYP2C9 = CYP2C9 (Homo sapiens (Human), UniProt P11712); assay: CYP2C9 inhibition with and without preincubation; type: in vitro ADME; settings: for inhibition at 15 µM: human, read-out: 15 μM % Inh
Sequence of CYP2C9 (P11712 whole entry): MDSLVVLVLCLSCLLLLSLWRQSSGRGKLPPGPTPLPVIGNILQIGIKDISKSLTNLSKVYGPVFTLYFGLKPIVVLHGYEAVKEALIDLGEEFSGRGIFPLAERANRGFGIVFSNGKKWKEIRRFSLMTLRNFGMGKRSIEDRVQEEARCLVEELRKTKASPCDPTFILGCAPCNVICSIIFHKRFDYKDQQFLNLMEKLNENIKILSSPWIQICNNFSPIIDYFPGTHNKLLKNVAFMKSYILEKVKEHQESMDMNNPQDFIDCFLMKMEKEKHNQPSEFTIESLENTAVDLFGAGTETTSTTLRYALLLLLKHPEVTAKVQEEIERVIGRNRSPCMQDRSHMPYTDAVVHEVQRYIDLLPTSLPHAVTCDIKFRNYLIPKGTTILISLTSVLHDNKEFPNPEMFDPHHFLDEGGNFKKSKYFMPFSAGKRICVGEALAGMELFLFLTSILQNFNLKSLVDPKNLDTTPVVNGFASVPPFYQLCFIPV
Procedure: as §2

hERG = hERG (Homo sapiens (Human), UniProt Q12809); assay: hERG inhibition, IonWorks patch clamp electrophysiology; type: cell-based; settings: human, 3 μM
Sequence of hERG (Q12809 whole entry): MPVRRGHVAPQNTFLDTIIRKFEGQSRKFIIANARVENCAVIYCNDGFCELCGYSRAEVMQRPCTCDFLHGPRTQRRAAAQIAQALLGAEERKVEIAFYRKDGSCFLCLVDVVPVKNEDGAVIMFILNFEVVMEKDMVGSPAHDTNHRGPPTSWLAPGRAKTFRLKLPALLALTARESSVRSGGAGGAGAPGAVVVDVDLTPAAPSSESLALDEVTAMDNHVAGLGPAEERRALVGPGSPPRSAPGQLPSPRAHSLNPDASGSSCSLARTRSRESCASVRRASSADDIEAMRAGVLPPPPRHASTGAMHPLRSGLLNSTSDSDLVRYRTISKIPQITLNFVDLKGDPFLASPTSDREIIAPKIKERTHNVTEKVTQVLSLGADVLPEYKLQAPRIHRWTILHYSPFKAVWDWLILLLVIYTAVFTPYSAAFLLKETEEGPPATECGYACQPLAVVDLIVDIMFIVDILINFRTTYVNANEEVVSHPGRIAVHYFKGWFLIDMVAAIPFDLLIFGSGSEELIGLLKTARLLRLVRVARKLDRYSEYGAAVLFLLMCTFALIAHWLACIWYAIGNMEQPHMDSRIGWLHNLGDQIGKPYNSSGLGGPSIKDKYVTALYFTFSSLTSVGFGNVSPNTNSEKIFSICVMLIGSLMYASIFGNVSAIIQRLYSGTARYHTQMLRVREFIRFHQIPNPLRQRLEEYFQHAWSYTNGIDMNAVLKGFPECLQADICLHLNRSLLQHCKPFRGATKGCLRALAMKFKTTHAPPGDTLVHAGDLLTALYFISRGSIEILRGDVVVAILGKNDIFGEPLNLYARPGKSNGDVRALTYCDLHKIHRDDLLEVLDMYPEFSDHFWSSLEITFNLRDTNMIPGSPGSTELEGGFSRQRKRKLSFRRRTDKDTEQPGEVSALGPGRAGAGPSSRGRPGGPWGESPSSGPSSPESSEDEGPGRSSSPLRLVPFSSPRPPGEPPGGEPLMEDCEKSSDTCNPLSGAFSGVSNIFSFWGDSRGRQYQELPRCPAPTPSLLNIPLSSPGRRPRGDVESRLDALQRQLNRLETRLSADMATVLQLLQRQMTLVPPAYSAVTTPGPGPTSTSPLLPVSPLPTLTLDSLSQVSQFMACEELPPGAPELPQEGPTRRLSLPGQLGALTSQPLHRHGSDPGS
Procedure: Compound I was tested for inhibition of the human ether a go-go (hERG) channel using IonWorks™ patch clamp electrophysiology at Essen Bioscience (Welwyn Garden City, England).

B-Raf = B-Raf (Homo sapiens (Human), UniProt P15056); assay: KINOMEscan binding of B-Raf to standard ligand
Sequence of B-Raf (P15056 whole entry): as the sequence (P15056 whole entry V600E) above, with E600V counted along it
Procedure: as §1

[4] = Pharmacokinetics after intravenous administration to rats; type: in vivo; settings: intravenous 0.25 mg/kg
Procedure: as §3

p38 MAPKα [5] = target: T1, p38 MAPKα; assay: p38 MAPKα enzyme inhibition (Method 2), Z-LYTE FRET; type: biochemical
Procedure: as §4
The inhibitory activities of test compounds against the p38 MAPKα isoform (MAPK14: Invitrogen) are evaluated indirectly by determining the level of activation/phosphorylation of the down-stream molecule, MAPKAP-K2. The p38 MAPKα protein (80 ng/mL, 2.5 μL) is mixed with the test compound (2.5 μL of either 4 μg/mL, 0.4 μg/mL, […] or 0.004 μg/mL) for 2 hr at RT. […] The mixture is incubated for 1 hr at RT. Development reagent (protease, 5 μL) is added for 1 hr prior to detection in a fluorescence microplate reader (Varioskan® Flash, ThermoFisher Scientific). […]
In all cases, the site-specific protease cleaves non-phosphorylated peptide only and eliminates the FRET signal. Phosphorylation levels of each reaction are calculated using the ratio of coumarin emission (donor) over fluorescein emission (acceptor), for which high ratios indicate high phosphorylation and low ratios indicate low phosphorylation levels.

[6] = Human hepatocyte stability test; type: in vitro ADME; settings: human hepatocytes
Procedure: as §2

human hepatocytes = assay: Human hepatocyte stability test; type: in vitro ADME
Procedure: as §2

Sequence of Lck (P06239 whole entry): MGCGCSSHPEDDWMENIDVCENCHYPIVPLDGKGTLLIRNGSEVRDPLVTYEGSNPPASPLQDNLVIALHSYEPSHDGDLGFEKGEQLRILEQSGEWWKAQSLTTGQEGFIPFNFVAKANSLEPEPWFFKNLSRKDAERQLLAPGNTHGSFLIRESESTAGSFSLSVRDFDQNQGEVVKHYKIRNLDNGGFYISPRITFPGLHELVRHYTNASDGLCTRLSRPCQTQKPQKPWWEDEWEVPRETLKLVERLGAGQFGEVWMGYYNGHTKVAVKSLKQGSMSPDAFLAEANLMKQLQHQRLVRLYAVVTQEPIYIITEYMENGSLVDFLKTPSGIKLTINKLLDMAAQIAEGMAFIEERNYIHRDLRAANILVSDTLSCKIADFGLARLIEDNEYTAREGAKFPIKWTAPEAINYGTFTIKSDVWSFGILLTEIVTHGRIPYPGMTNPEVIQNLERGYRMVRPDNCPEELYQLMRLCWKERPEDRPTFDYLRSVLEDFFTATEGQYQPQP

In the case of `C#Cc1cc(Nc2nccc(Oc3ccc(NC(=O)Nc4cc(C(C)(C)C)cc(NS(C)(=O)=O)c4OC)c4ccccc34)n2)cc(C(=O)NCCOCCOCCOC)c1` [Compound I, 3-((4-((4-(3-(5-(tert-Butyl)-2-methoxy-3-(methylsulfonamido)phenyl)ureido)naphthalen-1-yl)oxy)pyrimidin-2-yl)amino)-5-ethynyl-N-(2-(2-(2-methoxyethoxy)ethoxy)ethyl)benzamide], the Kd (Lck) is reported as 4.1 nM, the IC50 (CYP3A4; CYP3A4, 0 min preincubation) is reported as greater than 15000 nM and the IC50 (CYP3A4; CYP3A4, 30 min preincubation) is reported as 7800 nM. The inhibition at 15 µM (CYP3A4; CYP3A4, 0 min preincubation) was 31%, the inhibition at 15 µM (CYP3A4; CYP3A4, 30 min preincubation) was 54% and the Kd (Syk) was 21 nM. For the same compound, the Kd (p38 MAPKα [1]) was 9 nM, the “IL-1β release from biopsies of UC patients” value [2] was 5 ± 8% and the “IL-6 release from biopsies of UC patients” value [2] was 17 ± 23%. For the same compound, the “IL-8 release from biopsies of UC patients” value [2] was 9 ± 15%, the “effect on binding of B-Raf (V600E) to its standard ligand” value (B-Raf (V600E)) was “did not have any significant effect” and the Fpo [3] was 0.0%. For the same compound, the IC50 (GSK3α) was 411 nM, the IC50 (CYP2C9; CYP2C9, 0 min preincubation) was greater than 15000 nM and the IC50 (CYP2C9; CYP2C9, 30 min preincubation) was greater than 15000 nM. The inhibition at 15 µM (CYP2C9; CYP2C9, 0 min preincubation) was 21%, the inhibition at 15 µM (CYP2C9; CYP2C9, 30 min preincubation) was 37% and the inhibition at 3 µM (hERG) was -12 ± 4%. The “effect on binding of B-Raf to its standard ligand” value (B-Raf) was “did not have any significant effect”, the CI [4] was 4.8 mL/min/kg and the AUC(0-inf) ([4]; male, Wistar, rat, plasma) was 871 ng·h/mL. For the same compound, the AUC(0-t) ([4]; male, Wistar, rat, plasma) was 869 ng·h/mL, the C0 ([4]; male, Wistar, rat, plasma) was 6540 ng/mL and the half-life ([4]; male, Wistar, rat, plasma) was 6 min. The Vd ([4]; male, Wistar, rat, plasma, read-out: Vss) was 0.03 L/kg, the IC50 (p38 MAPKα [5]) was 224 nM and the half-life [6] was 34 min. For the same compound, the hepatocyte CLint ([6]; read-out: Mean intrinsic clearance) was 41 µL/min/1e6 cells and the “Mean hepatic extraction ratio” value (human hepatocytes) was 0.85.
